# Assay results reported in patent US8916573B2, “Quinazoline-2,4-dione derivatives” (Actelion Pharmaceuticals Ltd., priority 2011, dated 2014).
# Tested on: S. aureus 29213
# Assay: Bacterial growth minimal inhibitory concentrations (microdilution, cation-adjusted Mueller-Hinton Broth, CLSI M7-A7)
# Format: cell-based
# Conditions: Staphylococcus aureus, 29213; microdilution in cation-adjusted Mueller-Hinton Broth
# Experimental: Bacterial Growth Minimal Inhibitory Concentrations: Minimal inhibitory concentrations (MICs; mg/l) were determined in cation-adjusted MuellerHinton Broth by a microdilution method following the description given in “Methods for Dilution Antimicrobial Susceptibility Tests for Bacteria that Grow Aerobically”, Approved standard, 7th ed., Clinical and Laboratory Standards Institute (CLSI) Document M7-A7, Wayne, Pa., USA, 2006. Typical antibacterial test results are given in Table 1 hereafter (MIC in mg/l).
row,SMILES,MIC
1,"Cc1cccc2c(=O)n(CCC[C@H]3CN(c4ccc5c(n4)NC(=O)CS5)C(=O)O3)c(=O)[nH]c12 [Example 14, 8-methyl-3-{3-[(S)-2-oxo-3-(3-oxo-3,4-dihydro-2H-pyrido[3,2-b][1,4]thiazin-6-yl)-oxazolidin-5-yl]-propyl}-1H-quinazoline-2,4-dione]",≤ 0.016 µg/mL
2,"Cn1c(=O)n(CCC[C@H]2CN(c3ccc4c(n3)NC(=O)CS4)C(=O)O2)c(=O)c2ccccc21 [Example 2, 1-methyl-3-{3-[(S)-2-oxo-3-(3-oxo-3,4-dihydro-2H-pyrido[3,2-b][1,4]thiazin-6-yl)-oxazolidin-5-yl]-propyl}-1H-quinazoline-2,4-dione]",≤ 0.016 µg/mL
3,"O=C1COc2ccc(N3C[C@@H](CCCn4c(=O)[nH]c5c(Cl)cccc5c4=O)OC3=O)nc2N1 [Example 23, 8-chloro-3-{3-[(R)-2-oxo-3-(3-oxo-3,4-dihydro-2H-pyrido[3,2-b][1,4]oxazin-6-yl)-oxazolidin-5-yl]-propyl}-1H-quinazoline-2,4-dione]",0.031 µg/mL
4,"O=C1CSc2ccc(N3C[C@@H](CCCn4c(=O)[nH]c5ccc(F)cc5c4=O)OC3=O)cc2N1 [Example 26, 6-fluoro-3-{3-[(R)-2-oxo-3-(3-oxo-3,4-dihydro-2H-benzo[1,4]thiazin-6-yl)-oxazolidin-5-yl]-propyl}-1H-quinazoline-2,4-dione]",0.031 µg/mL
5,"O=C1CSc2ccc(N3C[C@H](CNCCn4c(=O)c5cccc6c5n(c4=O)CCC6)OC3=O)nc2N1 [Example 67, 2-(2-{[(S)-2-oxo-3-(3-oxo-3,4-dihydro-2H-pyrido[3,2-b][1,4]thiazin-6-yl)-oxazolidin-5-ylmethyl]-amino}-ethyl)-6,7-dihydro-5H-pyrido[3,2,1-ij]quinazoline-1,3-dione]",≤ 0.016 µg/mL
6,"Cc1ccc2[nH]c(=O)n(CCC[C@@H]3CN(c4ccc5c(c4)NC(=O)CS5)C(=O)O3)c(=O)c2c1 [Example 10, 6-methyl-3-{3-[(R)-2-oxo-3-(3-oxo-3,4-dihydro-2H-benzo[1,4]thiazin-6-yl)-oxazolidin-5-yl]-propyl}-1H-quinazoline-2,4-dione]",0.063 µg/mL
7,"O=C1CSc2ccc(N3C[C@H](CCCn4c(=O)[nH]c5cccc(Cl)c5c4=O)OC3=O)nc2N1 [Example 19, 5-chloro-3-{3-[(S)-2-oxo-3-(3-oxo-3,4-dihydro-2H-pyrido[3,2-b][1,4]thiazin-6-yl)-oxazolidin-5-yl]-propyl}-1H-quinazoline-2,4-dione]",≤ 0.016 µg/mL
8,"O=C1CSc2ccc(N3C[C@@H](CCCn4c(=O)[nH]c5cccc(Cl)c5c4=O)OC3=O)cc2N1 [Example 16, 5-chloro-3-{3-[(R)-2-oxo-3-(3-oxo-3,4-dihydro-2H-benzo[1,4]thiazin-6-yl)-oxazolidin-5-yl]-propyl}-1H-quinazoline-2,4-dione]",0.031 µg/mL
9,"Cc1cccc2c(=O)n(CCNC[C@@H]3CN(c4ccc5c(c4)NC(=O)CS5)C(=O)O3)c(=O)[nH]c12 [Example 60, 8-methyl-3-(2-{[(R)-2-oxo-3-(3-oxo-3,4-dihydro-2H-benzo[1,4]thiazin-6-yl)-oxazolidin-5-ylmethyl]-amino}-ethyl)-1H-quinazoline-2,4-dione]",0.25 µg/mL
10,"COC(=O)/C=C/c1ccc2c(=O)n(CCNC[C@H]3CN(c4ccc5c(c4)NC(=O)CS5)C(=O)O3)c(=O)n(C)c2c1 [Example 65, (E)-3-[1-methyl-2,4-dioxo-3-(2-{[(S)-2-oxo-3-(3-oxo-3,4-dihydro-2H-benzo[1,4]thiazin-6-yl)-oxazolidin-5-ylmethyl]-amino}-ethyl)-1,2,3,4-tetrahydro-quinazolin-7-yl]-acrylic acid methyl ester]",0.125 µg/mL
11,"COc1cccc2[nH]c(=O)n(CCC[C@@H]3CN(c4ccc5c(c4)NC(=O)CS5)C(=O)O3)c(=O)c12 [Example 33, 5-methoxy-3-{3-[(R)-2-oxo-3-(3-oxo-3,4-dihydro-2H-benzo[1,4]-thiazin-6-yl)-oxazolidin-5-yl]-propyl}-1H-quinazoline-2,4-dione]",0.125 µg/mL
12,"COc1ccc2c(=O)n(CCC[C@H]3CN(c4ccc5c(c4)NC(=O)CS5)C(=O)O3)c(=O)[nH]c2c1 [Example 35, 7-methoxy-3-{3-[(S)-2-oxo-3-(3-oxo-3,4-dihydro-2H-benzo[1,4]-thiazin-6-yl)-oxazolidin-5-yl]-propyl}-1H-quinazoline-2,4-dione]",0.125 µg/mL
13,"CC(=O)N(CCn1c(=O)c2ccccc2n(C)c1=O)C[C@@H]1CN(c2ccc3c(n2)NC(=O)CS3)C(=O)O1 [Example 68, N-[2-(1-methyl-2,4-dioxo-1,4-dihydro-2H-quinazolin-3-yl)-ethyl]-N-[(R)-2-oxo-3-(3-oxo-3,4-dihydro-2H-pyrido[3,2-b][1,4]thiazin-6-yl)-oxazolidin-5-ylmethyl]-acetamide]",0.25 µg/mL
14,"Cc1ccc2c(=O)n(CCC[C@@H]3CN(c4ccc5c(c4)NC(=O)CS5)C(=O)O3)c(=O)[nH]c2c1 [Example 11, 7-methyl-3-{3-[(R)-2-oxo-3-(3-oxo-3,4-dihydro-2H-benzo[1,4]-thiazin-6-yl)-oxazolidin-5-yl]-propyl}-1H-quinazoline-2,4-dione]",0.063 µg/mL
15,"O=C1CSc2ccc(N3C[C@@H](CCCn4c(=O)[nH]c5cc(F)ccc5c4=O)OC3=O)cc2N1 [Example 28, 7-fluoro-3-{3-[(R)-2-oxo-3-(3-oxo-3,4-dihydro-2H-benzo[1,4]thiazin-6-yl)-oxazolidin-5-yl]-propyl}-1H-quinazoline-2,4-dione]",0.063 µg/mL
16,"Cc1cccc2c(=O)n(CCC[C@H]3CN(c4ccc5c(c4)NC(=O)CS5)C(=O)O3)c(=O)[nH]c12 [Example 13, 8-methyl-3-{3-[(S)-2-oxo-3-(3-oxo-3,4-dihydro-2H-benzo[1,4]thiazin-6-yl)-oxazolidin-5-yl]-propyl}-1H-quinazoline-2,4-dione]",≤ 0.016 µg/mL
17,"Cc1cccc2c(=O)n(CCC[C@@H]3CN(c4ccc5c(c4)NC(=O)CS5)C(=O)O3)c(=O)[nH]c12 [Example 12, 8-methyl-3-{3-[(R)-2-oxo-3-(3-oxo-3,4-dihydro-2H-benzo[1,4]-thiazin-6-yl)-oxazolidin-5-yl]-propyl}-1H-quinazoline-2,4-dione]",≤ 0.016 µg/mL
18,"Cn1c(=O)n(CCNCC[C@@H]2CN(c3ccc4c(c3)NC(=O)CS4)C(=O)O2)c(=O)c2cccc(Cl)c21 [Example 30, 8-chloro-1-methyl-3-(2-{2-[(R)-2-oxo-3-(3-oxo-3,4-dihydro-2H-benzo[1,4]thiazin-6-yl)-oxazolidin-5-yl]-ethylamino}-ethyl)-1H-quinazoline-2,4-dione]",0.125 µg/mL
19,"Cn1c(=O)n(CCNC[C@H]2CN(c3ccc4c(n3)NC(=O)CO4)C(=O)O2)c(=O)c2cccc(Cl)c21 [Example 69, 8-chloro-1-methyl-3-(2-{[(S)-2-oxo-3-(3-oxo-3,4-dihydro-2H-pyrido[3,2-b][1,4]oxazin-6-yl)-oxazolidin-5-ylmethyl]-amino}-ethyl)-1H-quinazoline-2,4-dione]",0.031 µg/mL
20,"O=C1CSc2ccc(N3C[C@H](CCCn4c(=O)[nH]c5ccc(N6CCCC6)cc5c4=O)OC3=O)cc2N1 [Example 37, 3-{3-[(S)-2-oxo-3-(3-oxo-3,4-dihydro-2H-benzo[1,4]-thiazin-6-yl)-oxazolidin-5-yl]-propyl}-6-pyrrolidin-1-yl-1H-quinazoline-2,4-dione]",0.5 µg/mL
21,"O=C1COc2ccc(N3C[C@H](CCCn4c(=O)c5cccc6c5n(c4=O)CCC6)OC3=O)nc2N1 [Example 45, 2-{3-[(S)-2-oxo-3-(3-oxo-3,4-dihydro-2H-pyrido[3,2-b][1,4]oxazin-6-yl)-oxazolidin-5-yl]-propyl}-6,7-dihydro-5H-pyrido[3,2,1-ij]quinazoline-1,3-dione]",≤ 0.016 µg/mL
